A short description of series [1]: Dynamic moisture sorption (DMS) assessment. In kind it is physicochemical. How it is done: Dynamic moisture sorption (DMS) measurements were performed using a VTI atmospheric microbalance, SGA-100 system (VTI Corp., Hialeah, Fla. 33016). A weighed sample was used and the relative humidity (RH) was set at the ambient value at the start of the analysis. The sample was subjected to an initial drying step (from 45% RH to 5% RH) followed by two cycles of adsorption (5% RH to 90% RH) and desorption (90% RH to 5% RH) experiments. The DMS analysis used a scan rate of 5% RH/step over the full humidity range of 5% (RH) to 90% RH. The DMS run was performed isothermally at 25° C.

Series [2] can be described thus: Thermogravimetric analysis (TGA). In kind it is physicochemical. As to conditions: heating rate of 10° C. from ambient to 220° C., nitrogen purge. The procedure:
Thermogravimetric analysis (TGA) measurements were performed using a TA Instruments Model Q-50 module equipped with high resolution capability. Data were collected using TA Instruments Thermal Analyst controller and analyzed using TA Instruments Universal Analysis software. A weighed sample was placed onto a platinum pan and scanned with a heating rate of 10° C. from ambient temperature to 220° C. The balance and furnace chambers were purged with nitrogen flow during use.

Consider `Cc1oc(=O)oc1COC(=O)[C@](C)(CO)C[C@@H](Cc1ccc(-c2ccccc2)cc1)NC(=O)c1c[nH]nn1` [crystalline compound, (2S,4R)-5-biphenyl-4-yl-2-hydroxymethyl-2-methyl-4-[(1H-[1,2,3]triazole-4-carbonyl)-amino]-pentanoic acid 5-methyl-2-oxo-[1,3]dioxol-4-ylmethyl ester], for which the “hygroscopicity (DMS profile)” value in series [1] (5% RH to 90% RH, two adsorption/desorption cycles, 25° C.) was “non-hygroscopic”. The “moisture picked up during the adsorption segment” value in series [1] (adsorption from 5% RH to 90% RH, isothermal at 25° C.) was “less than 0.1 % by weight”. Besides, the “solid form after the DMS experiment (PXRD of post-DMS sample)” value in series [1] (after two moisture sorption-desorption cycles) was “no change in the form”. In addition, the “temperature until which the TGA trace shows no weight loss” value in series [2] is “about 200 °C”.

Source of the values: US8933111B2, “Crystalline form of (2S,4R)-5-biphenyl-4-yl-2-hydroxymethyl-2-methyl-4-[(1H-[1,2,3]triazole-4-carbonyl)-amino]-pentanoic acid 5-methyl-2-oxo-[1,3]dioxol-4-ylmethyl ester” (Theravance Biopharma R&D IP, LLC, priority 2012, dated 2015).
